Measurements taken from ChEMBL document CHEMBL1140730, “Validation of diacyl glycerolacyltransferase I as a novel target for the treatment of obesity and dyslipidemia using a potent and selective small molecule inhibitor” (J Med Chem, 2008).
pIC50: −log10 of the molar value.

Target: T1, Diacylglycerol O-acyltransferase 1 (Mus musculus, UniProt Q9Z2A7)
T1 sequence (Q9Z2A7 whole entry): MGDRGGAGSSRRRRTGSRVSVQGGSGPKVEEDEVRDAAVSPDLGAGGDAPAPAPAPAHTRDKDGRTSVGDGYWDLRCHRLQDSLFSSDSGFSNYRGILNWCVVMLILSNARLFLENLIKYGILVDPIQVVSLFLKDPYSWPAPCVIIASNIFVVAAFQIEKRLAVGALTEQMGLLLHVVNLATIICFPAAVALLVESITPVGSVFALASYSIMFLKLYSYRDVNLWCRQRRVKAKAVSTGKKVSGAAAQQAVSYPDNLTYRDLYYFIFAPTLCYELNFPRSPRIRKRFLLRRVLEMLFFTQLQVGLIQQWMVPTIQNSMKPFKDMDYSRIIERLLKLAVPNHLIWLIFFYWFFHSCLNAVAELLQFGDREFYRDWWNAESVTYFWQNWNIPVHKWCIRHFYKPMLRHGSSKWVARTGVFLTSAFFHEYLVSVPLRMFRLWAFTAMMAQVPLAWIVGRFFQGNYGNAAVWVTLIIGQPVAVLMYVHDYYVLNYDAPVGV
Experiment: Inhibition of mouse recombinant DGAT1 expressed in Sf9 cells

Row | SMILES | pIC50
1 | O=C(Nc1ccc(-c2ccc(C(=O)[C@@H]3CCC[C@H]3C(=O)O)cc2)cc1)Nc1cccc(F)c1 | 7.41
2 | O=C(Nc1ccc(-c2ccc(C(=O)[C@@H]3CCC[C@H]3C(=O)O)cc2)cc1)Nc1ccc2c(c1)OCO2 | 7.20
3 | O=C(Nc1ccc(-c2ccc(C(=O)[C@@H]3CCC[C@H]3C(=O)O)cc2)cc1)Nc1cccc(Cl)c1 | 7.72
4 | O=C(Nc1ccc(-c2ccc(C(=O)[C@@H]3CCC[C@H]3C(=O)O)cc2)cc1)Nc1ccc(C(F)(F)F)cc1 | 7.85
5 | O=C(Nc1ccc(-c2ccc(C(=O)[C@@H]3CCC[C@H]3C(=O)O)cc2)cc1)Nc1cc(C(F)(F)F)ccc1F | 7.68
6 | N#Cc1ccc(NC(=O)Nc2ccc(-c3ccc(C(=O)[C@@H]4CCC[C@H]4C(=O)O)cc3)cc2)cc1 | 6.22
